Results from patent publication US10807966B2, “Heterocyclic compounds as kinase inhibitors” (TRANSLATIONAL DRUG DEVELOPMENT, LLC, priority 2016, dated 2020).
pIC50: −log10 of the molar value.

Key:
ROCK2 = ROCK2 (Homo sapiens (Human), UniProt O75116); assay: ROCK2 kinase inhibition assay (peptide phosphorylation, LabChip 3000); format: biochemical; details: 7 μM ATP, 2.5 nM ROCK2, 3 hours at 25° C.
Description: (§1) The peptide is >98% purity by Capillary Electrophoresis. The peptide is phosphorylated by the protein kinase ROCK1 or ROCK2. The ROCK1 or ROCK2 enzyme, substrate, and cofactors (ATP and Mg^2+) are combined in a well of a microtiter plate and incubated for 3 hours at 25° C. At the end of the incubation, the reaction is quenched by the addition of an EDTA-containing buffer. The substrate and product are separated and quantified electrophoretically using the microfluidic-based LABCHIP® 3000 Drug Discovery System from Caliper Life Sciences (Hopkinton, Mass.).
(§2) The components of the assay mixture are:
(§3) 10 μM Sodium Orthovanadate
(§4) 10 μM Beta-Glycerophosphate
(§5) 5 μM ATP (for ROCK1) or 7 μM ATP (for ROCK2)
(§6) 3 nM ROCK1 or 2.5 nM ROCK2 enzyme
(§7) Substrate and product peptides present in each sample are separated electrophoretically using the LABCHIP® 3000 capillary electrophoresis instrument. […] Change in the relative fluorescence intensity of the substrate and product peaks is the parameter measured reflecting enzyme activity. Capillary electrophoregramms (RDA acquisition files) are analyzed using HTS Well Analyzer software (Caliper Life Sciences, Hopkinton, Mass.). The kinase activity in each sample is determined as the product to sum ratio (PSR): P/(S+P), where P is the peak height of the product peptide and S is the peak height of the substrate peptide. For each compound, enzyme activity is measured at various concentrations (12 concentrations of compound spaced by 3× dilution intervals). Negative control samples (0%-inhibition in the absence of inhibitor) and positive control samples (100%-inhibition in the presence of 20 mM EDTA) are assembled in replicates of four and are used to calculate %-inhibition values for each compound at each concentration. Percent inhibition (Pinh) is determined using the following equation: Pinh=(PSR0%−PSRinh)/(PSR0%−PSR100%)*100 where PSRinh is the product sum ratio in the presence of inhibitor, PSR0% is the average product sum ratio in the absence of inhibitor, and PSR100% is the average product sum ratio in 100%-inhibition control samples. The IC50 values of inhibitors are determined by fitting the inhibition curves (Pinh versus inhibitor concentration) by 4 parameter sigmoidal dose-response model using XLfit 4 software (IBDS).

K562 cells = assay: Cell viability assay (CellTiter-Blue), K562; format: cell-based; details: Homo sapiens; K562 (does not express ITD-FLT3), 72 hours treatment
Description: (§8) Cell viability in the presence of varying concentrations of the above listed compounds at different time points was used to assess cytotoxicity and the effect of the compounds on cell proliferation.
Cell viability was measured by the […]-BLUE® cell viability assay from Promega (Madison, Wis.). This procedure measures the conversion of the indicator dye (resazurin) to resorufin, an indicator of cell viability. Following treatment, growth media was removed and cells were incubated with 20 μl of […]-BLUE® Reagent and growth media for 1-4 hours at 37° C. Fluorescence values were measured at 535/590 nm using a Beckman-Coulter DTX-880 microplate reader.
Cells were grown to 70% confluency, trypsinized, counted, and seeded in 96 well flat-bottom plates at a final concentration of 2.5×10^3-5×10^3 cells/well (Day 0). Cells were allowed to incubate in growth media for 24 hours to allow for maximum adhesion. Treatment with the test agents or standard agents began on Day 1 and continued for 72 hours. At the 72-hour time point, treatment containing media was removed. Viable cell numbers were quantified by the […]-BLUE® cell viability assay as described above. Experiments were repeated at least twice with the same concentrations to determine growth inhibitory activity. Results from these studies were used to calculate an IC50 value (concentration of drug that inhibits cell growth by 50 percent of control) for each compound.
(§9) For single agent and combination studies, data from each experiment was collected and expressed as % Cell Growth using the following calculation: % Cell Growth=(ftest/fvehicle)×100 Where ftest is the fluorescence of the tested sample, and fvehicle is the fluorescence of the vehicle in which the drug is dissolved. Dose response graphs and IC50 values were generated using Prism 4 software (GraphPad) using the following equation: Y=(Top−Bottom)/(1+10^((logIC50-X)[…])) Where X is the logarithm of the concentration and Y is the response. Y starts at the Bottom and goes to the Top with a sigmoid shape.
(§10) The experiments also evaluated the selectivity of the compounds for inhibiting growth of cancer cells carrying a mutation in the Flt3 gene. The MV411 cell line expresses the mutant allele of Flt3 with internal tandem duplications (ITD) of the gene. See Quentmeier et al., “FLT3 Mutations in Acute Myeloid Leukemia Cell Lines,” Leukemia 17(1), 2003, 120-124. […] See Grafone et al., “Monitoring of FLT3 Phosphorylation Status and Its Response to Drugs By Flow Cytometry in AML Blast Cells,” Hematol Oncol. 26(3), 2008, 159-166.

ROCK1 = ROCK1 (Homo sapiens (Human), UniProt Q13464); assay: ROCK1 kinase inhibition assay (peptide phosphorylation, LabChip 3000); format: biochemical; details: 5 μM ATP, 3 nM ROCK1, 3 hours at 25° C.
Sequence of ROCK1 (Q13464 whole entry): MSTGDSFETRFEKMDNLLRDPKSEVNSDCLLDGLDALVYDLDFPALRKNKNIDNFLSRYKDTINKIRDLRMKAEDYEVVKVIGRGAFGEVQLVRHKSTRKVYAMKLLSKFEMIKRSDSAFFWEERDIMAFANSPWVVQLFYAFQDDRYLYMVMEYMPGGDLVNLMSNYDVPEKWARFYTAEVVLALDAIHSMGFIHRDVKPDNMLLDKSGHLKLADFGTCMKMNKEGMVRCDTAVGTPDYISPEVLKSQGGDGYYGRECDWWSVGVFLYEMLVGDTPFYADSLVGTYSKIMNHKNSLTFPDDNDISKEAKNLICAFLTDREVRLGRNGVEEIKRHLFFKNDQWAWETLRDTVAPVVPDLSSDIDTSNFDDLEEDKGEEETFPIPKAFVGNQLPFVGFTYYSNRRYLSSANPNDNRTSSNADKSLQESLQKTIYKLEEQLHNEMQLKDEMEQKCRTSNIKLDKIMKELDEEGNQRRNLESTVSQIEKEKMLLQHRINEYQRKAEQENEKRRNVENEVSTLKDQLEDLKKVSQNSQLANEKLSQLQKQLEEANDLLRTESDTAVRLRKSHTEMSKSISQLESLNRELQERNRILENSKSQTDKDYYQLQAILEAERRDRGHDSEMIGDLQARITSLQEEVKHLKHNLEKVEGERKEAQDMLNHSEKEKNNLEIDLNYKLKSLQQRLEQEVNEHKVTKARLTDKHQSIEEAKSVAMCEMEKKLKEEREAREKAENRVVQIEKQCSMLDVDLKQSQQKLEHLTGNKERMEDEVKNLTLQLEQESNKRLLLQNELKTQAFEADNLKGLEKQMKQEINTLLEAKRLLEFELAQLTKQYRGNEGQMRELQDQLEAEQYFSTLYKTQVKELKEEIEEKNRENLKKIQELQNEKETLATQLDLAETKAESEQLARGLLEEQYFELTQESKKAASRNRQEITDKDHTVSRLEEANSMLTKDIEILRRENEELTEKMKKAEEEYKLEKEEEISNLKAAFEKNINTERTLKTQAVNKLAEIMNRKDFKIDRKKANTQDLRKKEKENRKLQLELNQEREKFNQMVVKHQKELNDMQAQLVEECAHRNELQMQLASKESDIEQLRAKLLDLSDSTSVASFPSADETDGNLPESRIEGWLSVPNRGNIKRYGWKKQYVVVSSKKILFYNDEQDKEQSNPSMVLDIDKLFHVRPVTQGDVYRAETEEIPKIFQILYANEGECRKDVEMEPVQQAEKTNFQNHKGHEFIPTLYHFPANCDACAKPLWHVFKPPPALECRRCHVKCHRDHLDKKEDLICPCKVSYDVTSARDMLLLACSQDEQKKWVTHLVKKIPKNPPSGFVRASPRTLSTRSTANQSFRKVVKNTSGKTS
Description: as §1, §2, §3, §4, §5, §6
as §7, with “Negative control samples (0%-inhibition in the absence of inhibitor) and positive control samples (100%-inhibition in the presence of 20 mM EDTA) are assembled in replicates of four and are used to calculate %-inhibition values for each compound at each concentration.” left out

MV411 cells = assay: Cell viability assay (CellTiter-Blue), MV411; format: cell-based; details: for FLT3-ITD+ Selectivity (K562/MV411): ratio of K562 to MV411 IC50; for pIC50: Homo sapiens, MV4-11, MV411 (ITD-FLT3+), 72 hours treatment
Description: as §8
This procedure measures the conversion of the indicator dye (resazurin) to resorufin, an indicator of cell viability. […] Fluorescence values were measured at 535/590 nm using a Beckman-Coulter DTX-880 microplate reader.
Cells were grown to 70% confluency, trypsinized, counted, and seeded in 96 well flat-bottom plates at a final concentration of 2.5×10^3-5×10^3 cells/well (Day 0). Cells were allowed to incubate in growth media for 24 hours to allow for maximum adhesion. Treatment with the test agents or standard agents began on Day 1 and continued for 72 hours. At the 72-hour time point, treatment containing media was removed. […] Experiments were repeated at least twice with the same concentrations to determine growth inhibitory activity.
as §9, §10

Sequence of ROCK2 (O75116 whole entry): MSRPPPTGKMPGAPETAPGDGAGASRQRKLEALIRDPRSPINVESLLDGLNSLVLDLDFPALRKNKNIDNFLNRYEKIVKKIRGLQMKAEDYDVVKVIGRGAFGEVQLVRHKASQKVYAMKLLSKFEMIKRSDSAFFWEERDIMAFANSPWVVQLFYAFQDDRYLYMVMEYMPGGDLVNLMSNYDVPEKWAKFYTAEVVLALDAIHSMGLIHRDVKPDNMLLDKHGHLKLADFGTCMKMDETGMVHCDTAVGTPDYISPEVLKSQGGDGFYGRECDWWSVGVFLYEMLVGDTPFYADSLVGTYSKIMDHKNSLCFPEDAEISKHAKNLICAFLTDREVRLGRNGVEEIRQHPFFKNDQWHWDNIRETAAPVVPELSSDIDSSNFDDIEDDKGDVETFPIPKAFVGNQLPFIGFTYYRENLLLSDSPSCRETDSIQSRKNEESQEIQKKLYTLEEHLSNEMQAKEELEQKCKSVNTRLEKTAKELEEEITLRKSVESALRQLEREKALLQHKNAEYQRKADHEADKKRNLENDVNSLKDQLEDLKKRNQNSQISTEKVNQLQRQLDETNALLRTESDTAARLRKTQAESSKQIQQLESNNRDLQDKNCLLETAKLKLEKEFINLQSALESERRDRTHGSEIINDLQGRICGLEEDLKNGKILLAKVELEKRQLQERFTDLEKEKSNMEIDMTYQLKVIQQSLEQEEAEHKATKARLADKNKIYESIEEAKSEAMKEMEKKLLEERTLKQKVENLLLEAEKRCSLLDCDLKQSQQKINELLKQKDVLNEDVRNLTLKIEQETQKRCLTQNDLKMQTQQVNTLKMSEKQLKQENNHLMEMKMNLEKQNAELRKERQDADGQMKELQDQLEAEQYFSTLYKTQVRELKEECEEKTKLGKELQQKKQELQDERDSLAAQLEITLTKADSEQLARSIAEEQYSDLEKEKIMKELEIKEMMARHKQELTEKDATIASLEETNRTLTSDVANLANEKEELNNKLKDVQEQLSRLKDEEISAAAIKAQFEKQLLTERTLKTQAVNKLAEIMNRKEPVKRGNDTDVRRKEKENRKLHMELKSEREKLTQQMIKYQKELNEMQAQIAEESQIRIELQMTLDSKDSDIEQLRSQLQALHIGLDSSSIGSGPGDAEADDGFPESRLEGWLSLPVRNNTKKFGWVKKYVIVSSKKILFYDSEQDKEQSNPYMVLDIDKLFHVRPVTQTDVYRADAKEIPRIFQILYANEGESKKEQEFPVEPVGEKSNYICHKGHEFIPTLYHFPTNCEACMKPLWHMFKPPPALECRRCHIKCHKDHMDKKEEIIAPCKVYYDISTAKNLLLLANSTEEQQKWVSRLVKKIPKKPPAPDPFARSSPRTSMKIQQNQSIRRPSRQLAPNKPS

`O=C(N[C@H](CO)c1ccccc1)c1cc(-c2ccncc2)n[nH]1` [Compound 68] gave a pIC50 (ROCK2) of 6.29.

Work on `O=C(N[C@H](CO)c1cccc(Cl)c1)c1cc(-c2ccncc2)n[nH]1` [Compound 67] yielded a pIC50 (ROCK2) of 8.00.

With `O=C(N[C@H](CO)c1cccc(F)c1)c1cc(-c2ccncc2)[nH]n1` [Compound 1] the pIC50 (K562 cells) was less than 4.00, the pIC50 (ROCK1) was 6.68 and the pIC50 (ROCK2) was 7.56. For the same compound, the “FLT3-ITD+ Selectivity (K562/MV411)” value (MV411 cells) was greater than 1.

For `COc1cccc(CNC(=O)c2cc3ccc(-c4ccncc4)nc3s2)c1` [Compound 39], the pIC50 (K562 cells) was less than 4.00, the pIC50 (ROCK1) was 7.19 and the pIC50 (ROCK2) was 7.76. The pIC50 (MV411 cells) was 5.15 and the “FLT3-ITD+ Selectivity (K562/MV411)” value (MV411 cells) was greater than 14.

`C[C@@H](NC(=O)c1cc(-c2ccncc2)n[nH]1)c1cccc(F)c1` [Compound 64] showed a pIC50 (ROCK2) of 7.53.

For `CC(C)NC(=O)c1cccc(CNC(=O)c2cc3ccc(-c4cn[nH]c4)nc3s2)c1` [Compound 60], the pIC50 (K562 cells) was 4.19, the pIC50 (MV411 cells) was 4.89 and the “FLT3-ITD+ Selectivity (K562/MV411)” value (MV411 cells) was 5.

For `COc1cccc(CNC(=O)c2cc3ccc(-c4cn[nH]c4)nc3s2)c1` [Compound 40], the pIC50 (ROCK1) was 6.79, the pIC50 (ROCK2) was 7.77 and the pIC50 (MV411 cells) was 4.83. The “FLT3-ITD+ Selectivity (K562/MV411)” value (MV411 cells) was greater than 7.

`COc1cccc([C@@H](C)NC(=O)c2cc3ccc(-c4cn[nH]c4)nc3s2)c1` [Compound 58] showed a pIC50 (K562 cells) of 4.51, a pIC50 (ROCK2) of 8.35 and a pIC50 (MV411 cells) of 5.80. The “FLT3-ITD+ Selectivity (K562/MV411)” value (MV411 cells) was 19.

In the case of `C[C@@H](NC(=O)c1cc(-c2ccncc2)n[nH]1)c1cccc(Cl)c1` [Compound 66], the pIC50 (ROCK2) was 8.01.

For `COc1cccc(CN(CCN(C)C)C(=O)c2cc3ccc(-c4cn[nH]c4)nc3s2)c1` [Compound 59], the pIC50 (K562 cells) was 4.60, the pIC50 (ROCK2) was 7.70 and the pIC50 (MV411 cells) was 5.35. For the same compound, the “FLT3-ITD+ Selectivity (K562/MV411)” value (MV411 cells) was 6.

In the case of `COc1cccc([C@@H](CO)NC(=O)c2cc3ccc(-c4cn[nH]c4)nc3s2)c1` [Compound 61], the pIC50 (K562 cells) was 4.27, the pIC50 (ROCK2) was 8.15 and the pIC50 (MV411 cells) was 5.09. For the same compound, the “FLT3-ITD+ Selectivity (K562/MV411)” value (MV411 cells) was 7.
